Test results published in the supplement of paper PMC10307832.

Columns and labels:
Assay in all cases: relative viability (nuclei count vs DMSO), 5 days (fraction); higher = more cells survive
Imatinib + Navitoclax = compound: Cc1ccc(NC(=O)c2ccc(CN3CCN(C)CC3)cc2)cc1Nc1nccc(-c2cccnc2)n1 [Imatinib] + CC1(C)CCC(c2ccc(Cl)cc2)=C(CN2CCN(c3ccc(C(=O)NS(=O)(=O)c4ccc(N[C@H](CCN5CCOCC5)CSc5ccccc5)c(S(=O)(=O)C(F)(F)F)c4)cc3)CC2)C1 [Navitoclax] (partner 0.5 µM)
Procedure, shortened: (§1)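 The day after seeding in 1536-well plates, lung cancer cell lines were treated by pin tool with a single drug, or with a fixed anchor-drug dose together with five library-drug doses (not always all listed) in √10 steps. After 5 days, a combined fix-and-stain solution (final 0.05% Triton X-100, 1% formaldehyde, 1 ug/ml Hoechst) was added. Nuclei counted on 4× images gave relative viability as treated counts over vehicle counts, reported as the median of duplicate plates.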

Imatinib + Lapatinib = compound: Cc1ccc(NC(=O)c2ccc(CN3CCN(C)CC3)cc2)cc1Nc1nccc(-c2cccnc2)n1 [Imatinib] + CS(=O)(=O)CCNCc1ccc(-c2ccc3ncnc(Nc4ccc(OCc5cccc(F)c5)c(Cl)c4)c3c2)o1 [Lapatinib] (partner 2 µM)
Procedure, shortened: as §1

Imatinib + Pictilisib = compound: Cc1ccc(NC(=O)c2ccc(CN3CCN(C)CC3)cc2)cc1Nc1nccc(-c2cccnc2)n1 [Imatinib] + CS(=O)(=O)N1CCN(Cc2cc3nc(-c4cccc5[nH]ncc45)nc(N4CCOCC4)c3s2)CC1 [Pictilisib] (partner 1 µM)
Procedure, shortened: as §1

Imatinib + Vorinostat = compound: Cc1ccc(NC(=O)c2ccc(CN3CCN(C)CC3)cc2)cc1Nc1nccc(-c2cccnc2)n1 [Imatinib] + O=C(CCCCCCC(=O)Nc1ccccc1)NO [Vorinostat] (partner 1 µM)
Procedure, shortened: as §1

| Cell Line | relative viability (Imatinib + Navitoclax; first compound 0.02 µM) | relative viability (Imatinib + Navitoclax; first compound 0.2 µM) | relative viability (Imatinib + Navitoclax; first compound 0.6325 µM) | relative viability (Imatinib + Navitoclax; first compound 2 µM) | relative viability (Imatinib + Lapatinib; first compound 0.02 µM) | relative viability (Imatinib + Lapatinib; first compound 0.2 µM) | relative viability (Imatinib + Lapatinib; first compound 0.6325 µM) | relative viability (Imatinib + Pictilisib; first compound 0.02 µM) | relative viability (Imatinib + Pictilisib; first compound 0.2 µM) | relative viability (Imatinib + Pictilisib; first compound 0.6325 µM) | relative viability (Imatinib + Pictilisib; first compound 2 µM) | relative viability (Imatinib + Vorinostat; first compound 0.02 µM) | relative viability (Imatinib + Vorinostat; first compound 0.2 µM) | relative viability (Imatinib + Vorinostat; first compound 0.6325 µM) | relative viability (Imatinib + Vorinostat; first compound 2 µM) | relative viability (Imatinib + Navitoclax; first compound 0.06325 µM) | relative viability (Imatinib + Lapatinib; first compound 0.06325 µM) | relative viability (Imatinib + Lapatinib; first compound 2 µM) | relative viability (Imatinib + Pictilisib; first compound 0.06325 µM) | relative viability (Imatinib + Vorinostat; first compound 0.06325 µM) |
| --- | --- | --- | --- | --- | --- | --- | --- | --- | --- | --- | --- | --- | --- | --- | --- | --- | --- | --- | --- | --- |
| NCI-H1915 | 0.788 | 0.807 | 0.759 | 0.777 | 0.974 | 1.04 | 0.952 | 0.962 | 1.01 | 0.958 | 0.871 | 0.613 | 0.516 | 0.461 | 0.471 | – | – | – | – | – |
| NCI-H1437 | 1.24 | 1.34 | 1.08 | 1.04 | 0.916 | 0.925 | 0.706 | 0.391 | 0.422 | 0.463 | 0.424 | 0.934 | 0.883 | 0.998 | 0.786 | 1.17 | 0.841 | 0.823 | 0.454 | 0.81 |
| CAL-12T | 1.44 | 1.21 | 1.38 | 0.974 | 0.631 | 0.938 | 0.705 | 0.507 | 0.486 | 0.667 | 0.524 | 0.854 | 0.828 | 0.78 | 0.711 | 1.32 | 0.609 | 0.667 | 0.433 | 0.69 |
| HOP-62 | 0.983 | 1.36 | 1.04 | 0.517 | 1.03 | 0.999 | 0.935 | 0.775 | 0.822 | 0.569 | 0.958 | 0.884 | 0.83 | 0.562 | 0.68 | – | – | 0.991 | – | – |
| UMC-11 | 0.303 | 0.291 | 0.334 | 0.329 | 1.01 | 1.25 | 0.995 | 0.81 | 1 | 1.06 | 0.837 | 0.35 | 0.36 | 0.412 | 0.369 | 0.35 | 1.1 | 0.994 | 0.749 | 0.377 |
| NCI-H2126 | 0.883 | 0.865 | 0.851 | 0.824 | – | 0.828 | 0.684 | 0.507 | 0.484 | 0.452 | 0.475 | 0.702 | 0.789 | 0.724 | 0.818 | – | – | 0.704 | – | 0.582 |
